From PubChem BioAssay AID1918993 (Molecular Pharmacology Branch, DTP, NCI, 2023)
Where “and” joins values, the source holds several entries; their conditions need not be identical. Equal values may be shown once.

System: 233499-124-R-J3-PDC complex spheroid growth
Assay: Anticancer human tumor 233499-124-R-J3-PDC patient-derived colon adenocarcinoma cell line growth inhibition [AhR]
Details: for viability, T/C: stronger effect = lower value; active = viability on the fitted dose curve at most 10% of control; inactive = the rest
Description: Multicellular complex tumor spheroid response to aryl hydrocarbon receptor antagonists in combination with a variety of drugs and investigational agents in selected tumor cell lines
The current study was undertaken to assess response to aryl hydrocarbon receptor antagonists in combination with standard-of-care drugs and investigational agents in solid tumor complex spheroid models. Complex spheroids include a stromal component modeled by human endothelial cells (HUVEC) and fibroblasts modeled by human mesenchymal stem cells (MSCs). The concentration ranges selected for each drug and investigational agent were based upon clinically achievable concentrations if the clinical Cmax of the agent was known.
Compounds. The drugs and investigational agents: BAY 2416964 (NSC825713), GNF351 (NSC835774), CH-223191 (NSC835775), CPI-455 (NSC825282), aza-TdCyd (NSC777586), decitabine (NSC127716), belinostat (NSC758774), entinostat (NSC756642), pevonedistat (NSC761192), tazemetostat (NSC777109), talazoparib (NSC765396), olaparib (NSC753686), selinexor (NSC780203), nedisertib (M3814, NSC802822), bortezomib (NSC756655), venetoclax (NSC766270), doxorubicin (NSC123127), elimusertib (BAY189344, NSC800525), ceralasertib (AZD6738, NSC777638), TAK-243 (NSC785004), alisertib (NSC759677), etoposide (NSC141540), topotecan (NSC609699), eribulin (NSC707389), gemcitabine (NSC613327), carboplatin (NSC241240), cisplatin (NSC119875), and SN-38 (NSC673596) were obtained from the National Cancer Institute (NCI) Developmental Therapeutics Program Chemical Repository (32). The FDA-approved anticancer drug set is available from the Developmental Therapeutics Program at https://dtp.cancer.gov/organization/dscb/obtaining/available plates.htm. […] The stock solutions were prepared in dimethyl sulfoxide (DMSO, Sigma-Aldrich, St. Louis, MO, cat. D2650), except for the platinum compounds which were prepared in saline (Quality Biological, Gaithersburg, MD, cat. 114-055-101), at 800-fold the tested concentration and stored at -70 degrees C prior to their use. All drugs and investigational agents were tested over a range starting from a high concentration at or near the clinical Cmax and decreasing in half-log increments. If the clinical Cmax for an agent had not been determined, the highest concentration tested was 10 microM (Table 1).
Cell Culture. All cells were maintained in an incubator at 37 degrees C and 5% CO2 with 95% humidity. The PDC lines were cultured according to standard operating procedures established by the NCI PDMR (https://pdmr.cancer.gov). Briefly, all PDCs were thawed and cultured in Matrigel-coated flasks prepared with a working solution of 1X Ham's F-12 nutrient mix, without supplementation (Invitrogen, Waltham, MA, cat. 11765054), 100 U/mL penicillin-streptomycin (Invitrogen, cat. 15140122), and 2.5% Matrigel (Corning Inc., Corning, NY, cat. 354248) for the first three passages. All PDCs were cultured in complete DMEM/F-12 media containing advanced DMEM/F-12 (Invitrogen, cat. 12634028), 4.9% defined fetal bovine serum, heat inactivated (HyClone Laboratories Inc., Logan, UT, cat. SH30070.03HI), 389 ng/mL hydrocortisone (Sigma-Aldrich, cat. H4001), 9.7 ng/mL human EGF recombinant protein (Invitrogen, cat. PHG0313), 23.4 microg/mL adenine (Sigma-Aldrich, cat. A2786), 97.3 U/mL penicillin-streptomycin (Invitrogen, cat. 15140122), 1.9 mM L-glutamine (Invitrogen, cat. 25030081), and 9.7 microM Y-27632 dihydrochloride (Tocris Bioscience, Bristol, United Kingdom, cat. 1254). The PDCs were cultured in complete DMEM/F12 media without 10 microM Y-27632 dihydrochloride for at least two passages prior to the screen. The established cell lines NCI-H1341 and […] were cultured in DMEM/F-12, HEPES (Invitrogen, cat. 11330032), 5% defined fetal bovine serum (HyClone Laboratories Inc., cat. SH30070.03), ITS premix universal culture supplement [insulin (5 microg/mL), transferrin (5 microg/mL), and selenious acid (5 ng/mL)] […]

[1] = curve of first compound, second compound 0.1 µM
[2] = curve of first compound, second compound 0.316 µM
[3] = curve of first compound, second compound 1 µM
[4] = curve of first compound, second compound 3.16 µM
[5] = curve of first compound, second compound 10 µM
[6] = second compound 0.1 µM, first compound 0.0316 µM
[7] = second compound 0.1 µM, first compound 0.1 µM
[8] = second compound 0.1 µM, first compound 0.316 µM
[9] = second compound 0.1 µM, first compound 1 µM
[10] = second compound 0.1 µM, first compound 3.16 µM
[11] = second compound 0.1 µM, first compound 10 µM
[12] = second compound 0.316 µM, first compound 0.0316 µM
[13] = second compound 0.316 µM, first compound 0.1 µM
[14] = second compound 0.316 µM, first compound 0.316 µM
[15] = second compound 0.316 µM, first compound 1 µM
[16] = second compound 0.316 µM, first compound 3.16 µM
[17] = second compound 0.316 µM, first compound 10 µM
[18] = second compound 1 µM, first compound 0.0316 µM
[19] = second compound 1 µM, first compound 0.1 µM
[20] = second compound 1 µM, first compound 0.316 µM
[21] = second compound 1 µM, first compound 1 µM
[22] = second compound 1 µM, first compound 3.16 µM
[23] = second compound 1 µM, first compound 10 µM
[24] = second compound 3.16 µM, first compound 0.0316 µM
[25] = second compound 3.16 µM, first compound 0.1 µM
[26] = second compound 3.16 µM, first compound 0.316 µM
[27] = second compound 3.16 µM, first compound 1 µM
[28] = second compound 3.16 µM, first compound 3.16 µM
[29] = second compound 3.16 µM, first compound 10 µM
[30] = second compound 10 µM, first compound 0.0316 µM
[31] = second compound 10 µM, first compound 0.1 µM
[32] = second compound 10 µM, first compound 0.316 µM
[33] = second compound 10 µM, first compound 1 µM
[34] = second compound 10 µM, first compound 3.16 µM
[35] = second compound 10 µM, first compound 10 µM
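Note: spheroids exposed to agents for seven days before reading.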

COc1cccc2c1C(=O)c1c(O)c3c(c(O)c1C2=O)CC(O)(C(=O)CO)CC3OC1CC(N)C(O)C(C)O1 (configuration not stated) + Cc1cncc(-c2nc(NCCc3c[nH]c4ccccc34)c3ncn(C(C)C)c3n2)c1
8.48 µM: IC50 [1]
< 0.0316 µM: IC50 [5]
active: viability, T/C [29] 4.5%
> 10 µM: IC50 [2]
1.35 µM: IC50 [4]
2.77 µM: IC50 [3]
inactive: viability, T/C [6] 102% | viability, T/C [7] 84.1% | viability, T/C [8] 80.3% | viability, T/C [9] 83.2% | viability, T/C [10] 49.3% | viability, T/C [11] 51.2% | viability, T/C [12] 73.8% | viability, T/C [13] 90.8% | viability, T/C [14] 79.8% | viability, T/C [15] 78% | viability, T/C [16] 61.3% | viability, T/C [17] 50.6% | viability, T/C [18] 87.4% | viability, T/C [19] 72.8% | viability, T/C [20] 76.9% | viability, T/C [21] 71% | viability, T/C [22] 46.9% | viability, T/C [23] 32.5% | viability, T/C [24] 81.8% | viability, T/C [25] 87.1% | viability, T/C [26] 77.5% | viability, T/C [27] 60.8% | viability, T/C [28] 21.3% | viability, T/C [30] 7.64% | viability, T/C [31] 13.7% | viability, T/C [32] 41% | viability, T/C [33] 13.4% | viability, T/C [34] 14.4% | viability, T/C [35] 0.5%

Nc1ncn(C2CC(O)C(CO)S2)c(=O)n1 (configuration not stated) + CC(CO)NC(=O)c1cc(-c2ccc(Cl)cc2)nn(-c2cnn(C)c2)c1=O
> 0.3 µM: IC50 [1] | IC50 [2] | IC50 [3] | IC50 [4] | IC50 [5]
inactive: viability, T/C (second compound 0.1 µM, first compound 0.000949 µM) 106% | viability, T/C (second compound 0.1 µM, first compound 0.003 µM) 109% | viability, T/C (second compound 0.1 µM, first compound 0.00949 µM) 92.5% | viability, T/C (second compound 0.1 µM, first compound 0.03 µM) 109% | viability, T/C (second compound 0.1 µM, first compound 0.0949 µM) 104% | viability, T/C (second compound 0.1 µM, first compound 0.3 µM) 86.3% | viability, T/C (second compound 0.316 µM, first compound 0.000949 µM) 99.5% | viability, T/C (second compound 0.316 µM, first compound 0.003 µM) 95.5% | viability, T/C (second compound 0.316 µM, first compound 0.00949 µM) 105% | viability, T/C (second compound 0.316 µM, first compound 0.03 µM) 97% | viability, T/C (second compound 0.316 µM, first compound 0.0949 µM) 104% | viability, T/C (second compound 0.316 µM, first compound 0.3 µM) 95% | viability, T/C (second compound 1 µM, first compound 0.000949 µM) 98.2% | viability, T/C (second compound 1 µM, first compound 0.003 µM) 105% | viability, T/C (second compound 1 µM, first compound 0.00949 µM) 113% | viability, T/C (second compound 1 µM, first compound 0.03 µM) 100% | viability, T/C (second compound 1 µM, first compound 0.0949 µM) 106% | viability, T/C (second compound 1 µM, first compound 0.3 µM) 96.9% | viability, T/C (second compound 3.16 µM, first compound 0.000949 µM) 103% | viability, T/C (second compound 3.16 µM, first compound 0.003 µM) 100% | viability, T/C (second compound 3.16 µM, first compound 0.00949 µM) 103% | viability, T/C (second compound 3.16 µM, first compound 0.03 µM) 112% | viability, T/C (second compound 3.16 µM, first compound 0.0949 µM) 89.5% | viability, T/C (second compound 3.16 µM, first compound 0.3 µM) 90.5% | viability, T/C (second compound 10 µM, first compound 0.000949 µM) 86.8% | viability, T/C (second compound 10 µM, first compound 0.003 µM) 84.1% | viability, T/C (second compound 10 µM, first compound 0.00949 µM) 101% | viability, T/C (second compound 10 µM, first compound 0.03 µM) 100% | viability, T/C (second compound 10 µM, first compound 0.0949 µM) 102% | viability, T/C (second compound 10 µM, first compound 0.3 µM) 87.6%

COc1cccc2c1C(=O)c1c(O)c3c(c(O)c1C2=O)CC(O)(C(=O)CO)CC3OC1CC(N)C(O)C(C)O1 (configuration not stated) + Cc1ccccc1N=Nc1ccc(NC(=O)c2ccnn2C)c(C)c1
inactive: viability, T/C [6] 87% | viability, T/C [7] 92.3% | viability, T/C [8] 102% | viability, T/C [9] 91.7% | viability, T/C [10] 83.3% | viability, T/C [11] 60.2% | viability, T/C [12] 80.4% | viability, T/C [13] 92.6% | viability, T/C [14] 95.9% | viability, T/C [15] 85.3% | viability, T/C [16] 72.2% | viability, T/C [17] 47.2% | viability, T/C [18] 97.2% | viability, T/C [19] 99% | viability, T/C [20] 102% | viability, T/C [21] 86.3% | viability, T/C [22] 81.6% | viability, T/C [23] 71.9% | viability, T/C [24] 88.3% | viability, T/C [25] 92.1% | viability, T/C [26] 97.7% | viability, T/C [27] 107% | viability, T/C [28] 86.8% | viability, T/C [29] 78% | viability, T/C [30] 95.2% | viability, T/C [31] 95.1% | viability, T/C [32] 94.4% | viability, T/C [33] 98.7% | viability, T/C [34] 96% | viability, T/C [35] 78.7%
8.8 µM: IC50 [2]
> 10 µM: IC50 [1] | IC50 [3] | IC50 [4] | IC50 [5]

CC1COCCN1c1cc(-c2ccnn2C)c2ccnc(-c3ccn[nH]3)c2n1 (configuration not stated)
inactive: viability, T/C (compound 0.00316 µM) 94.6% and 92.4% and 98.3% | viability, T/C (compound 0.01 µM) 88.1% and 91.6% and 75% | viability, T/C (compound 0.0316 µM) 91.3% and 96.4% and 105% | viability, T/C (compound 0.1 µM) 89.3% and 82.8% and 95.2% | viability, T/C (compound 0.316 µM) 75.3% and 74.5% and 69.8% | viability, T/C (compound 1 µM) 43% and 64% and 37.5%
0.784 µM and > 1 µM and 0.642 µM: IC50 (curve of compound)
